Measured values from paper PMC11576293, “New series of 4,6-diaryl pyrimidines: facile synthesis and antiproliferative activity as dual EGFR/VEGFR-2 inhibitors” (Frontiers in Chemistry, 2024).

Assays:
Experiment in all cases: NCI-60 single-dose screen
Assay type in all cases: cell-based
SR = conditions: Homo sapiens, single dose 10 µM, '-' = no inhibition, read-out: % Growth Inhibition
Outline: (§1)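 Single concentration (10 μM) per compound, assayed by the NCI DTP against its 60-line panel covering leukemia, lung, colon, CNS, melanoma, ovarian, renal, prostate and breast cancers.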

MALME-3M = conditions: Homo sapiens, single dose 10 µM, '-' = no inhibition, read-out: % Growth Inhibition
Outline: as §1

A549/ATCC = conditions: Homo sapiens, single dose 10 µM, '-' = no inhibition, read-out: % Growth Inhibition
Outline: as §1

IGROV1 = conditions: Homo sapiens, IGROV-1, single dose 10 µM, '-' = no inhibition, read-out: % Growth Inhibition
Outline: as §1

UACC-257 = conditions: Homo sapiens, single dose 10 µM, '-' = no inhibition, read-out: % Growth Inhibition
Outline: as §1

LOX IMVI = conditions: Homo sapiens, single dose 10 µM, '-' = no inhibition, read-out: % Growth Inhibition
Outline: as §1

SNB-75 = conditions: Homo sapiens, single dose 10 µM, '-' = no inhibition, read-out: % Growth Inhibition
Outline: as §1

HOP-62 = conditions: Homo sapiens, single dose 10 µM, '-' = no inhibition, read-out: % Growth Inhibition
Outline: as §1

ACHN 1 = conditions: Homo sapiens, single dose 10 µM, '-' = no inhibition, read-out: % Growth Inhibition
Outline: as §1

SF-539 = conditions: Homo sapiens, single dose 10 µM, '-' = no inhibition, read-out: % Growth Inhibition
Outline: as §1

SW-620 = conditions: Homo sapiens, single dose 10 µM, '-' = no inhibition, read-out: % Growth Inhibition
Outline: as §1

MOLT-4 = conditions: Homo sapiens, single dose 10 µM, '-' = no inhibition, read-out: % Growth Inhibition
Outline: as §1

NCI/ADR-RES = conditions: Homo sapiens, single dose 10 µM, '-' = no inhibition, read-out: % Growth Inhibition
Outline: as §1

OVCAR-5 = conditions: Homo sapiens, single dose 10 µM, '-' = no inhibition, read-out: % Growth Inhibition
Outline: as §1

HCT-15 = conditions: Homo sapiens, single dose 10 µM, '-' = no inhibition, read-out: % Growth Inhibition
Outline: as §1

RPMI-8226 = conditions: Homo sapiens, single dose 10 µM, '-' = no inhibition, read-out: % Growth Inhibition
Outline: as §1

U251 = conditions: Homo sapiens, U-251, single dose 10 µM, '-' = no inhibition, read-out: % Growth Inhibition
Outline: as §1

EKVX = conditions: Homo sapiens, single dose 10 µM, '-' = no inhibition, read-out: % Growth Inhibition
Outline: as §1

BT-549 = conditions: Homo sapiens, single dose 10 µM, '-' = no inhibition, read-out: % Growth Inhibition
Outline: as §1

NCI-H522 = conditions: Homo sapiens, single dose 10 µM, '-' = no inhibition, read-out: % Growth Inhibition
Outline: as §1

CAKI-1 = conditions: Homo sapiens, single dose 10 µM, '-' = no inhibition, read-out: % Growth Inhibition
Outline: as §1

UACC-62 = conditions: Homo sapiens, single dose 10 µM, '-' = no inhibition, read-out: % Growth Inhibition
Outline: as §1

SK-MEL-28 = conditions: Homo sapiens, single dose 10 µM, '-' = no inhibition, read-out: % Growth Inhibition
Outline: as §1

SF-295 = conditions: Homo sapiens, single dose 10 µM, '-' = no inhibition, read-out: % Growth Inhibition
Outline: as §1

NCI-H23 = conditions: Homo sapiens, single dose 10 µM, '-' = no inhibition, read-out: % Growth Inhibition
Outline: as §1

TK-10 = conditions: Homo sapiens, single dose 10 µM, '-' = no inhibition, read-out: % Growth Inhibition
Outline: as §1

SNB-19 = conditions: Homo sapiens, single dose 10 µM, '-' = no inhibition, read-out: % Growth Inhibition
Outline: as §1

MDA-MB-468 = conditions: Homo sapiens, single dose 10 µM, '-' = no inhibition, read-out: % Growth Inhibition
Outline: as §1

UO-31 = conditions: Homo sapiens, single dose 10 µM, '-' = no inhibition, read-out: % Growth Inhibition
Outline: as §1

786-0 = conditions: Homo sapiens, single dose 10 µM, '-' = no inhibition, read-out: % Growth Inhibition
Outline: as §1

NCI-H460 = conditions: Homo sapiens, single dose 10 µM, '-' = no inhibition, read-out: % Growth Inhibition
Outline: as §1

HL-60(TB) = conditions: Homo sapiens, single dose 10 µM, '-' = no inhibition, read-out: % Growth Inhibition
DU-145 = conditions: Homo sapiens, single dose 10 µM, '-' = no inhibition, read-out: % Growth Inhibition
Outline: as §1

OVCAR-4 = conditions: Homo sapiens, single dose 10 µM, '-' = no inhibition, read-out: % Growth Inhibition
Outline: as §1

SK-OV-3 = conditions: Homo sapiens, single dose 10 µM, '-' = no inhibition, read-out: % Growth Inhibition
Outline: as §1

KM12 = conditions: Homo sapiens, single dose 10 µM, '-' = no inhibition, read-out: % Growth Inhibition
Outline: as §1

MDA-MB231/ATCC = conditions: Homo sapiens, MDA-MB-231, single dose 10 µM, '-' = no inhibition, read-out: % Growth Inhibition
Outline: as §1

RXF 393 = conditions: Homo sapiens, single dose 10 µM, '-' = no inhibition, read-out: % Growth Inhibition
Outline: as §1

COLO 205 = conditions: Homo sapiens, single dose 10 µM, '-' = no inhibition, read-out: % Growth Inhibition
Outline: as §1

HOP-92 = conditions: Homo sapiens, single dose 10 µM, '-' = no inhibition, read-out: % Growth Inhibition
Outline: as §1

PC-3 = conditions: Homo sapiens, single dose 10 µM, '-' = no inhibition, read-out: % Growth Inhibition
Outline: as §1

OVCAR-3 = conditions: Homo sapiens, single dose 10 µM, '-' = no inhibition, read-out: % Growth Inhibition
Outline: as §1

M14 = conditions: Homo sapiens, single dose 10 µM, '-' = no inhibition, read-out: % Growth Inhibition
Outline: as §1

NCI-H322M = conditions: Homo sapiens, single dose 10 µM, '-' = no inhibition, read-out: % Growth Inhibition
Outline: as §1

A498 = conditions: Homo sapiens, single dose 10 µM, '-' = no inhibition, read-out: % Growth Inhibition
Outline: as §1

T-47D = conditions: Homo sapiens, T47D, single dose 10 µM, '-' = no inhibition, read-out: % Growth Inhibition
Outline: as §1

HT29 = conditions: Homo sapiens, HT-29, single dose 10 µM, '-' = no inhibition, read-out: % Growth Inhibition
Outline: as §1

## COc1ccc(-c2cc(-c3ccc(Cl)cc3)nc(SCc3ccccc3)n2)cc1 [Compound 14, 2-(Benzylthio)-4-(4-chlorophenyl)-6-(4-methoxyphenyl)pyrimidine]
SR
  inhibition at 10 µM: 10.2%
MALME-3M
  inhibition at 10 µM: < 0%
A549/ATCC
  inhibition at 10 µM: 2.08%
IGROV1
  inhibition at 10 µM: < 0%
UACC-257
  inhibition at 10 µM: < 0%
LOX IMVI
  inhibition at 10 µM: 3.14%
SNB-75
  inhibition at 10 µM: < 0%
HOP-62
  inhibition at 10 µM: < 0%
ACHN 1
  inhibition at 10 µM: 11%
SF-539
  inhibition at 10 µM: < 0%
SW-620
  inhibition at 10 µM: < 0%
MOLT-4
  inhibition at 10 µM: 4.54%
NCI/ADR-RES
  inhibition at 10 µM: < 0%
OVCAR-5
  inhibition at 10 µM: 2.5%
HCT-15
  inhibition at 10 µM: 4.95%
RPMI-8226
  inhibition at 10 µM: < 0%
U251
  inhibition at 10 µM: < 0%
EKVX
  inhibition at 10 µM: 2.76%
BT-549
  inhibition at 10 µM: < 0%
NCI-H522
  inhibition at 10 µM: < 0%
CAKI-1
  inhibition at 10 µM: 2.18%
UACC-62
  inhibition at 10 µM: < 0%
SK-MEL-28
  inhibition at 10 µM: < 0%
SF-295
  inhibition at 10 µM: < 0%
NCI-H23
  inhibition at 10 µM: < 0%
TK-10
  inhibition at 10 µM: < 0%
SNB-19
  inhibition at 10 µM: < 0%
MDA-MB-468
  inhibition at 10 µM: < 0%
UO-31
  inhibition at 10 µM: < 0%
786-0
  inhibition at 10 µM: < 0%
NCI-H460
  inhibition at 10 µM: < 0%
HL-60(TB)
  inhibition at 10 µM: 18.1%
DU-145
  inhibition at 10 µM: 1.74%
OVCAR-4
  inhibition at 10 µM: < 0%
SK-OV-3
  inhibition at 10 µM: < 0%
KM12
  inhibition at 10 µM: < 0%
MDA-MB231/ATCC
  inhibition at 10 µM: < 0%
RXF 393
  inhibition at 10 µM: < 0%
COLO 205
  inhibition at 10 µM: 10.3%
HOP-92
  inhibition at 10 µM: < 0%
PC-3
  inhibition at 10 µM: 20.7%
OVCAR-3
  inhibition at 10 µM: 6.22%
M14
  inhibition at 10 µM: < 0%
NCI-H322M
  inhibition at 10 µM: < 0%
A498
  inhibition at 10 µM: < 0%
T-47D
  inhibition at 10 µM: 14.4%
HT29
  inhibition at 10 µM: 8.96%
